Like-named read-outs stand apart in the source and are kept apart here.
Columns and labels:
[1] = SOD-like activity: inhibition of superoxide reduction of nitroblue tetrazolium (DMSO-KO2 / xanthine-xanthine oxidase); assay type: biochemical; settings: for IC50 / Percent Reactivity (SOD-like activity): Table I; for IC50: read-out: Concentration: compound required for 50% inhibition of superoxide reduction of nitroblue tetrazolium; for Percent Reactivity (SOD-like activity): relative to Cu-Zn SOD = 100
[2] = cited from earlier work
[3] = pH 12; cited from earlier work
[4] = pH 7.0; cited from earlier work
patients = settings: ongoing clinical trials; cited from earlier work
rats = experiment: Acute toxicity in rats (subcutaneous); assay type: in vivo
Method: (§1) The particular embodiment described in complete detail herein concerns the use of Cu(II)(3,5-dips)2. […] A minimum prophylatic dose would be about 0.001 mg/kg, while a therapeutic dose would range from about 1 mg to 100 mg/kg, depending upon the radiation dose. Therapeutic doses would be initiated about two weeks before radiotherapy, and would continue as necessary after the radiation treatment. For cases of accidental exposure, treatment would be initiated immediately after exposure and continued as necessary thereafter. Prophylactic doses would be taken on a continuing basis, for example a daily basis, as long as the recurrent radiation exposure continued. In any of these cases, the route of administration might be oral, topical, rectal or parenteral (e.g., intramuscular, intravenous, subcutaneous, or intraperitoneal).
Copper 3,5-diisopropylsalicylate was synthesized according to the method of Sorenson, J. Med. Chem. 19:135 (1976), which is incorporated herein by reference.

mice = experiment: Acute toxicity in mice (subcutaneous); assay type: in vivo; settings: subcutaneous injection, 10080 min
Method: as §1

[5] = Rate of superoxide dismutation; assay type: biochemical; settings: Table I
Text: The enzyme superoxide dismutase (SOD) plays a significant role in the defense against oxygen toxicity in aerobic organisms. Superoxide dismutase catalyzes the dismutation of O2^-, as follows:.
2 ^- O-O^. +2H^+ →H2 O2 +^. O-O^.
**Weser, et al., In "Inflammatory Diseases and Copper", Sorenson (ed.),
Humana Press: Clifton, New Jersey (1982), p. 513

human beings = experiment: Predicted toxicity in human beings by extrapolation; settings: per body weight
Method: as §1

lethally irradiated mice = experiment: Radioprotection: survival of lethally irradiated (60Co) mice; assay type: in vivo, female B6CBFl mice
Method: One group of 22-control and two groups of 24-treated 8 to 10 week old female B6CBFl mice (Cumberland View Farms, Clinton, Tennessee) were used. Control animals were given a subcutaneous (sc) injection of 0.3 ml of vehicle (0.25% Tween 80 in 0.9% pyrogen-free sterile saline) 24 hours before irradiation. One treatment group was given a single sc injection of 0.49 mM/kg of Cu(II)(3,5-dips)2 in 0.3 ml of vehicle 3 hours before irradiation and the other group was given the same treatment 24 hours before irradiation.
This radiation dose was measured with an electrometer connected to 0.05 ml NBS calibrated ion chambers positioned inside wax phantom mice placed in plexiglass cages. The tissue to air ratio for these phantom mice has been determined to be 97 percent. Control and treated mice were housed 5 mice per cage and fed mouse chow and water ad libitum for the 30 day observation period.

[6] = 0.49 mM/kg sc 3 hours before 10 Gy, 30 day observation
[7] = 0.49 mM/kg sc 24 hours before 10 Gy, 30 day observation

CC(=O)Oc1ccccc1C(=O)[O-].CC(=O)Oc1ccccc1C(=O)[O-].CC(=O)Oc1ccccc1C(=O)[O-].CC(=O)Oc1ccccc1C(=O)[O-].CS(C)=O.CS(C)=O.[Cu+2].[Cu+2] [Cu(II)2 (acetylsalicylate)4 (DMSO)2]
IC50 [1]: 2800 nM
Percent Reactivity (SOD-like activity) [1]: 0.69%

CC(=O)Oc1ccccc1C(=O)[O-].CC(=O)Oc1ccccc1C(=O)[O-].CC(=O)Oc1ccccc1C(=O)[O-].CC(=O)Oc1ccccc1C(=O)[O-].CS(C)=O.CS(C)=O.CS(C)=O.CS(C)=O.[Cu+2].[Cu+2] [Cu(II)2 (acetylsalicylate)4 (dimethylsulfoxide)4]
superoxide scavenging (in words) [1]: superoxide scavengers

CC(=O)Oc1ccccc1C(=O)[O-].CC(=O)Oc1ccccc1C(=O)[O-].CC(=O)Oc1ccccc1C(=O)[O-].CC(=O)Oc1ccccc1C(=O)[O-].[Cu+2].[Cu+2].c1ccncc1.c1ccncc1 [Cu(II)2 (acetylsalicylate)4 (pyridine)2]
IC50 [1]: 2700 nM
Percent Reactivity (SOD-like activity) [1]: 0.32%

CC(=O)Oc1ccccc1C(=O)[O-].CC(=O)Oc1ccccc1C(=O)[O-].CC(=O)Oc1ccccc1C(=O)[O-].CC(=O)Oc1ccccc1C(=O)[O-].[Cu+2].[Cu+2].c1ccncc1.c1ccncc1.c1ccncc1.c1ccncc1 [Cu(II)2 (acetylsalicylate)4 (pyridine)4]
superoxide scavenging (in words) [1]: superoxide scavengers

CC(C)(C)c1cc(C(=O)[O-])c(O)c(C(C)(C)C)c1.CC(C)(C)c1cc(C(=O)[O-])c(O)c(C(C)(C)C)c1.[Cu+2] [Cu(II)(3,5-ditertiarybutylsalicylate)2]
superoxide scavenging (in words) [1]: superoxide scavengers
IC50 [1]: 6200 nM
Percent Reactivity (SOD-like activity) [1]: 0.74%

O=C(O)c1ccccc1[O-].O=C(O)c1ccccc1[O-].[Cu+2] [Cu(II)(salicylate)2]
Rate of superoxide dismutation ([2]; Table I, footnote ** (Weser et al.)): 1.6 × 10 M^-1 s^-1
superoxide scavenging (in words) [1]: superoxide scavengers
IC50 [1]: 4600 nM
Percent Reactivity (SOD-like activity) [1]: 0.65%

O=C([O-])CN(CCN(CC(=O)[O-])CC(=O)O)CC(=O)O.[Na+].[Na+] [Na2 EDTA]
Rate, Cu(II)(L)2 + e^- aq [3]: 1e+10 M⁻¹ s⁻¹
Rate, Cu(II)(L)2 + HO^. [4]: 4e+09 M⁻¹ s⁻¹

NCCCNCCSP(=O)(O)O [WR2721, S-2-(3-aminopropylamino) ethyl-phosphorothioic acid]
undesirable side effects (patients): emesis, hypertension, hypotension, somnolence and allergy

Cu(II)2 (acetylsalicylate)4
superoxide scavenging (in words) [1]: superoxide scavengers
IC50 [1]: 3100 nM
Percent Reactivity (SOD-like activity) [1]: 0.043%

bovine SOD: pure bovine SOD
sensitivity of the assay, ug SOD per unit of activity ([1]; pure bovine SOD, per unit of activity, pH 7.8): 0.85 µg

copper 3,5-diisopropylsalicylate [Cu(II)(3,5-dips)2]
LD50 (rats; subcutaneous): 240 +33 mg/kg
LD50/7 (rats; subcutaneous injection, 10080 min): 240 mg/kg
LD50/7 (mice): at least 280 mg/kg
Rate of superoxide dismutation [5]: 1e+09 to 2e+09 M⁻¹ s⁻¹
predicted LD50 in human beings (human beings): approximately 250 mg/kg
day post-irradiation after which none died (lethally irradiated mice; 0.49 mM/kg sc 3 hours before 10 Gy): 18 days
number of surviving mice (lethally irradiated mice; [6]): 8 mice
survival (lethally irradiated mice; [6]): Thirty-three
day post-irradiation after which none died (lethally irradiated mice; 0.49 mM/kg sc 24 hours before 10 Gy): 19 days
number of surviving mice (lethally irradiated mice; [7]): 14 mice
survival (lethally irradiated mice; [7]): Fifty-eight
survival (lethally irradiated mice; pretreatment interval 3 h, restated in comparison with Cu-Zn SOD): 33%
survival (lethally irradiated mice; pretreatment interval 24 h, restated in comparison with Cu-Zn SOD): 58%
survivors (lethally irradiated mice; similarly treated mice, irradiated with 12 Gy): no survivors
protection compared with Cu-Zn SOD (in words) (lethally irradiated mice; vs Cu-Zn SOD data of Petkau, different conditions): much greater protection
superoxide scavenging (in words) [1]: superoxide scavengers
IC50 [1]: 2900 nM
efficiency in disproportionating superoxide compared with Cu-Zn SOD (in words) ([1]; based on Table I): not as efficient as Cu-Zn SOD
mean SOD activity ([1]; modified assay, DMSO-KO2, pH 7.8): 17,400±1,800 units per milligram
Percent Reactivity (SOD-like activity) [1]: 0.70%

superoxide dismutase: enzyme that catalyzes the dismutation of O2^-; native SOD has a molecular weight of about 32,000 daltons
rate of O2^- dismutation, k ([2]; Czapski 1971): 1.3e+09 M⁻¹ s⁻¹
